Key:
physchem = details: pH 9.5, aqueous buffer
[1] = sustained abstinence in chronic frequent smokers; cited from earlier work
[2] = people driving; similar to 0.08 breath alcohol; cited from earlier work

SMILES	solubility (physchem) [µg/mL]	time residual THC can be detected in blood [1]	blood concentration showing increased weaving within the lane [2] [µg/L]
COc1cc(NS(C)(=O)=O)ccc1N [OX0245]	≥ 1000	–	–
CCCCCc1cc(O)c2c(c1)OC(C)(C)[C@@H]1CCC(C)=C[C@@H]21 [THC, Δ-9-tetrahydrocannabinol]	–	up to a month	13.1

Reference: patent US20190086432A1, “SYSTEMS AND METHODS RELATED TO HUMAN NON-INVASIVE DRUG TESTING” (priority 2017, published 2019)
